Reference: patent US20240391882A1 (Mirati Therapeutics, Inc., priority 2023, published 2024)

What was measured:
[1] = test system: T47D (PI3Kα H1047R mutant) cells; test: Cell viability (CellTiter-Glo 2.0) in T47D cells; assay type: cell-based; details: Homo sapiens, T47D, 72 h, approximately 72 hours
Procedure: This Example illustrates that representative compounds of the invention decrease the viability of cells.
The ability of a compound of Formula (I) to decrease the viability of cells was measured using CellTiter-Glo 2.0 (CTG) Luminescent Cell Viability Assay (#G9241) obtained from Promega (Madison, WI).
To prepare assay plates for viability assays, cells were trypsinized, resuspended in fresh media, and viable cells were counted utilizing trypan blue exclusion. T47D, SKBR3, or MKN1 cells were seeded at 1000 cells in 30 μl per well in a solid white flat bottom 384 cell culture plate (Perkin Elmer #6007680) and incubated at 37° C. overnight.
Assay day 1, cells were dosed using an Echo Liquid Handler (Beckman Coulter) with compounds at a 10 μm starting concentration and serially diluted (1:4) for a total of 10 concentrations. Cells were incubated for approximately 72 hours with the compounds (solubilized in DMSO) at 37° C. After 72 hours of treatment, cell plates were equilibrated to room temperature before adding 15 μl of CTG to each well, plates were then covered in aluminum foil to protect from light, incubated at room temperature for 30 minutes on a microtiter plate shaker, and luminescence readings were collected using a CLARIOstar microplate reader (BMG Labtech, Germany). Percent of vehicle control values were plotted as log(inhibitor) vs. response—Variable slope (four parameters) for curve fitting and IC50 values were determined using XLfit.

[2] = test system: pAKT in T47D (PI3Kα H1047R mutant) cells; test: Inhibition of pAKT (alphaLISA Surefire Ultra AKT 1/2/3 pS473) in T47D cells; assay type: cell-based; details: Homo sapiens; T47D (PI3Kα H1047R mutant) cells, 24 hr compound incubation, alphaLISA pS473; read-out: T47D (H1047R) pAKT 24 hr (IC50)
Procedure: The ability of a compound of Formula (I) to inhibit the formation of pAKT was measured using alphaLISA Surefire Ultra AKT 1/2/3 (pS473) Assay Kit (#ALSU-PAKT-B50K) was obtained from Perkin Elmer (Waltham, MA).
To prepare assay plates for pAKT alphaLISA assays, cells were trypsinized, resuspended in fresh media, and viable cells were counted utilizing trypan blue exclusion. Prior to seeding, cells were washed with PBS and resuspended in HBSS (Gibco, #14025092). T47D (12,000/w), SKBR3 (12,000/w), or MKN1 (24,000/w) cells were seeded at 12 μl per well in a solid white flat bottom 384 cell culture plate (Perkin Elmer #6007680).
Immediately after seeding, cells were dosed using an Echo Liquid Handler (Beckman Coulter) with compounds at a 10.4 μm starting concentration and serially diluted (1:4) for a total of 10 concentrations. 14 vehicle (DMSO) and 14 positive control (Alpelisib @3.125 μm) wells were included on each assay plate. Cells were incubated with the compounds (solubilized in DMSO) for approximately 24 hours at 37° C. After 24 hours of treatment, cells were lysed with 3 μl of the 5× lysis buffer (provided and incubated at room temperature for 15 min on a microtiter plate shaker). Once cells were sufficiently lysed, 7.5 μl of the acceptor bead mix (made using the manufacturers recommended dilutions) was added to each well and left on the microtiter plate shaker for 1 min prior to incubating plates at room temperature for 1 hour, in the absence of light. After 1 hour of incubation with the acceptor bead mix, 7.5 μl of the donor bead mix (made using the manufacturers recommended dilutions) was added to each well and left on the microtiter plate shaker for 1 min prior to incubating plates at room temperature overnight in the absence of light. Plates were then imaged the following day using a CLARIOstar microplate reader (BMG Labtech, Germany).
Percent of control values were calculated by subtracting the average signal from the positive control (alpelisib) treated wells from all treated wells (including DMSO control wells) and then divided by the average signal from the vehicle DMSO treated control wells. Percent of vehicle control values were plotted as log(inhibitor) vs. response—Variable slope (four parameters) for curve fitting and IC50 values were determined using XLfit.

Cc1cc([C@@H](C)Nc2ccc(Cl)nc2C(=O)O)c2nc(N3CC[C@H](CO)C3)c(C#N)nc2c1 [Example 158, 6-chloro-3-(((R)-1-(2-cyano-3-((S)-3-(hydroxymethyl)pyrrolidin-1-yl)-7-methylquinoxalin-5-yl)ethyl)amino)picolinic acid]
IC50 [1]: 0.0881 µM
IC50 [2]: 0.0036 µM

Cc1cc([C@@H](C)Nc2ccc(Cl)nc2C(=O)O)c2nc(N3CC[C@@H](CO)C3)c(C#N)nc2c1 [Example 159, 6-chloro-3-(((R)-1-(2-cyano-3-((R)-3-(hydroxymethyl)pyrrolidin-1-yl)-7-methylquinoxalin-5-yl)ethyl)amino)picolinic acid]
IC50 [1]: 0.0703 µM
IC50 [2]: 0.0026 µM

Cc1cc([C@@H](C)Nc2ccc(Cl)nc2C(=O)O)c2nc(N(C)CCC(=O)N(C)C)c(C#N)nc2c1 [Example 114, (R)-6-chloro-3-((1-(2-cyano-3-((3-(dimethylamino)-3-oxopropyl)(methyl)amino)-7-methylquinoxalin-5-yl)ethyl)amino)picolinic acid]
IC50 [1]: 0.19 µM
IC50 [2]: 0.011 µM

Cc1cc([C@@H](C)Nc2ccc(Cl)nc2C(=O)O)c2nc(N3C[C@@H]4[C@@H](CO)[C@@H]4C3)c(C#N)nc2c1 [Example 167, 6-chloro-3-(((R)-1-(2-cyano-3-((1R,5S,6R)-6-(hydroxymethyl)-3-azabicyclo[3.1.0]hexan-3-yl)-7-methylquinoxalin-5-yl)ethyl)amino)picolinic acid]
IC50 [1]: 0.15 µM
IC50 [2]: 0.0046 µM

Cc1cc([C@@H](C)Nc2ccc(Cl)nc2C(=O)O)c2nc(N3CCN(c4ccc(C(F)(F)F)cn4)CC3)c(C#N)nc2c1 [Example 179, (R)-6-chloro-3-((1-(2-cyano-7-methyl-3-(4-(5-(trifluoromethyl)pyridin-2-yl)piperazin-1-yl)quinoxalin-5-yl)ethyl)amino)picolinic acid]
IC50 [1]: 0.0773 µM
IC50 [2]: 0.0039 µM

Cc1cc([C@@H](C)Nc2ccc(Cl)nc2C(=O)O)c2nc(N3C[C@@H]4[C@H](CO)[C@@H]4C3)c(C#N)nc2c1 [Example 163, 6-chloro-3-(((R)-1-(2-cyano-3-((1R,5S,6S)-6-(hydroxymethyl)-3-azabicyclo[3.1.0]hexan-3-yl)-7-methylquinoxalin-5-yl)ethyl)amino)picolinic acid]
IC50 [1]: 0.191 µM
IC50 [2]: 0.0068 µM

Cc1cc([C@@H](C)Nc2ccc(Cl)nc2C(=O)O)c2nc(N3C[C@H]4C[C@@H]3CO4)c(C#N)nc2c1 [Example 174, 3-(((R)-1-(3-((1R,4R)-2-oxa-5-azabicyclo[2.2.1]heptan-5-yl)-2-cyano-7-methylquinoxalin-5-yl)ethyl)amino)-6-chloropicolinic acid]
IC50 [1]: 0.0366 µM
IC50 [2]: 0.0044 µM

COC[C@@H]1[C@H]2CN(c3nc4c([C@@H](C)Nc5ccc(Cl)nc5C(=O)O)cc(C)cc4nc3C#N)C[C@@H]12 [Example 166, 6-chloro-3-(((R)-1-(2-cyano-3-((1R,5S,6R)-6-(methoxymethyl)-3-azabicyclo[3.1.0]hexan-3-yl)-7-methylquinoxalin-5-yl)ethyl)amino)picolinic acid]
IC50 [1]: 0.0386 µM
IC50 [2]: 0.0012 µM

Cc1cc([C@@H](C)Nc2ccc(Cl)nc2C(=O)O)c2nc(N3C[C@@H](F)[C@@H](F)C3)c(C#N)nc2c1 [Example 122, 6-chloro-3-(((R)-1-(2-cyano-3-((3S,4R)-3,4-difluoropyrrolidin-1-yl)-7-methylquinoxalin-5-yl)ethyl)amino)picolinic acid]
IC50 [1]: 0.0338 µM
IC50 [2]: 0.0013 µM

Cc1cc([C@@H](C)Nc2ccccc2C(=O)O)c2nc(N3CCC4(CC3)C(F)(F)C4(F)F)c(C#N)nc2c1 [Example 129, (R)-2-((1-(2-cyano-7-methyl-3-(1,1,2,2-tetrafluoro-6-azaspiro[2.5]octan-6-yl)quinoxalin-5-yl)ethyl)amino)benzoic acid]
IC50 [1]: 0.33 µM
IC50 [2]: 0.0188 µM

Cc1cc([C@@H](C)Nc2nccnc2C(=O)O)c2nc(N3CCC(F)(F)CC3)c(C#N)nc2c1 [Example 113, (R)-3-((1-(2-cyano-3-(4,4-difluoropiperidin-1-yl)-7-methylquinoxalin-5-yl)ethyl)amino)pyrazine-2-carboxylic acid]
IC50 [1]: 1.17 µM
IC50 [2]: > 10.4 µM

COC[C@]1(F)CCN(c2nc3c([C@@H](C)Nc4ccc(Cl)nc4C(=O)O)cc(C)cc3nc2C#N)C1 (single isomer, unassigned) [Example 165]
IC50 [1]: 0.097 µM
IC50 [2]: 0.0056 µM

COC[C@@]1(F)CCN(c2nc3c([C@@H](C)Nc4ccc(Cl)nc4C(=O)O)cc(C)cc3nc2C#N)C1 (single isomer, unassigned) [Example 164]
IC50 [1]: 0.055 µM
IC50 [2]: 0.0021 µM

Cc1cc([C@@H](C)Nc2ccccc2C(=O)O)c2nc(N3CC(F)(F)C3)c(C#N)nc2c1 [Example 127, (R)-2-((1-(2-cyano-3-(3,3-difluoroazetidin-1-yl)-7-methylquinoxalin-5-yl)ethyl)amino)benzoic acid]
IC50 [1]: 0.296 µM
IC50 [2]: 0.0084 µM

CC(=O)N1CCN(c2nc3c([C@@H](C)Nc4ccc(Cl)nc4C(=O)O)cc(C)cc3nc2C#N)CC1 [Example 160, (R)-3-((1-(3-(4-acetylpiperazin-1-yl)-2-cyano-7-methylquinoxalin-5-yl)ethyl)amino)-6-chloropicolinic acid]
IC50 [1]: 0.0858 µM
IC50 [2]: 0.0046 µM

Cc1cc([C@@H](C)Nc2ccc(Cl)nc2C(=O)O)c2nc(NCCC(=O)N(C)C)c(C#N)nc2c1 [Example 125, (R)-6-chloro-3-((1-(2-cyano-3-((3-(dimethylamino)-3-oxopropyl)amino)-7-methylquinoxalin-5-yl)ethyl)amino)picolinic acid]
IC50 [1]: 0.163 µM
IC50 [2]: 0.0027 µM

Cc1cc([C@@H](C)Nc2ccc(Cl)nc2C(=O)O)c2nc(N3CCC(c4ccnn4C)CC3)c(C#N)nc2c1 [Example 126, (R)-6-chloro-3-((1-(2-cyano-7-methyl-3-(4-(1-methyl-1H-pyrazol-5-yl)piperidin-1-yl)quinoxalin-5-yl)ethyl)amino)picolinic acid]
IC50 [1]: 0.0248 µM
IC50 [2]: 0.0008 µM

Cc1cc([C@@H](C)Nc2ccc(Cl)nc2C(=O)O)c2nc(N3C[C@H](F)[C@@H](F)C3)c(C#N)nc2c1 [Example 178, 6-chloro-3-(((R)-1-(2-cyano-3-((3S,4S)-3,4-difluoropyrrolidin-1-yl)-7-methylquinoxalin-5-yl)ethyl)amino)picolinic acid]
IC50 [1]: 0.0244 µM
IC50 [2]: 0.0005 µM

Cc1cc([C@@H](C)Nc2ccc(Cl)nc2C(=O)O)c2nc(N3CC(C)(C)C(F)(F)C3)c(C#N)nc2c1 [Example 123, (R)-6-chloro-3-((1-(2-cyano-3-(3,3-difluoro-4,4-dimethylpyrrolidin-1-yl)-7-methylquinoxalin-5-yl)ethyl)amino)picolinic acid]
IC50 [1]: 0.273 µM
IC50 [2]: 0.0668 µM

Cc1cc([C@@H](C)Nc2ccc(Cl)nc2C(=O)O)c2nc(N3CCC(=O)CC3)c(C#N)nc2c1 [Example 161, (R)-6-chloro-3-((1-(2-cyano-7-methyl-3-(4-oxopiperidin-1-yl)quinoxalin-5-yl)ethyl)amino)picolinic acid]
IC50 [1]: 0.0476 µM
IC50 [2]: 0.0046 µM

Cc1cc([C@@H](C)Nc2ccc(Cl)nc2C(=O)O)c2nc(N3CCN(c4ncc(C)s4)CC3)c(C#N)nc2c1 [Example 115, (R)-6-chloro-3-((1-(2-cyano-7-methyl-3-(4-(5-methylthiazol-2-yl)piperazin-1-yl)quinoxalin-5-yl)ethyl)amino)picolinic acid]
IC50 [1]: 0.0313 µM
IC50 [2]: 0.001 µM
